Test system: MCF-7 cells
Assay: MCF-7 cell proliferation yield assay (nuclei counted after 4 days) with or without hormone
Format: cell-based, human
Settings: hormone added with the inhibitor (CDHuS, CDHA, rHA); estradiol at 100 pM; the other hormones tested against rHA, data not shown
Protocol: A clonal population of the human breast cancer MCF-7 cell line was used in some of the experiments described below. These cells were routinely grown in 5% fetal bovine serum (FBS) supplemented-Dulbecco's Modified Eagle's Medium (DME). […] Estrogen non-target, serum-insensitive human breast cancer MDA-MB231 cells (ATCC, Rockville, Md.) were used as controls; they were grown under the same conditions as MCF-7 cells.
To assess the inhibitory effect of serum or purified protein preparations, 4×10^4 cells/well were seeded in 12-well Falcon Multiplates in 5% FBS; they were allowed to attach for 24 h before exposing them to test medium. Cell proliferation yields were measured after 4 days in DME plus 25 ug transferrin (T)/ml and 100 ng insulin (I)/ml ([…]) alone, or ITDME plus CD human serum (CDHuS), or purified protein preparations. Each sample was tested in duplicate in the presence or absence of 100 pM estradiol (E2) and each experiment was repeated at least three times. Phenol red-free media were used in all experiments involving cell proliferation rates or yields. Cells were lysed and nuclei counted on a Coulter Counter Model ZM.

SMILES | reversal by hormone of the inhibitory effect on MCF-7 proliferation
C[C@]12CCC(=O)C[C@@H]1CC[C@@H]1[C@@H]2CC[C@]2(C)[C@@H](O)CC[C@@H]12 [5α-dihydrotestosterone] | failed to reverse the effect of rHA
CC(=O)[C@H]1CC[C@H]2[C@@H]3CCC4=CC(=O)CC[C@]4(C)[C@H]3CC[C@]12C [Progesterone] | failed to reverse the effect of rHA
C[C@]1(O)CC[C@H]2[C@@H]3CCC4=CC(=O)CCC4=C3C=C[C@@]21C [R1881] | failed to reverse the effect of rHA
C[C@]12CCC(=O)C=C1CC[C@@H]1[C@@H]2[C@@H](O)C[C@@]2(C)[C@H]1CC[C@]2(O)C(=O)CO [hydrocortisone] | failed to reverse the effect of rHA
N[C@@H](Cc1cc(I)c(Oc2cc(I)c(O)c(I)c2)c(I)c1)C(=O)O [thyroxine] | failed to reverse the effect of rHA

From patent publication US20020123080A1, “Inhibiting proliferation of cancer cells” (Tufts University, priority 1996, published 2002)
